Data from US20240124504A1, “AROMATIC HETEROCYCLIC COMPOUND, AND PHARMACEUTICAL COMPOSITION AND APPLICATION THEREOF” (GT APEIRON THERAPEUTICS LIMITED, priority 2020, published 2024).

Columns and labels:
CDK2/cyclinE1 complex = CDK2/cyclinE1 complex (Homo sapiens, UniProt P24941); assay: In-vitro enzymatic inhibitory activity testing, CDK2 inhibition assay (Caliper EZ Reader II); assay type: biochemical; conditions: CDK2/cyclinE1 0.5 nM, 180 min at 27° C.
How it was run: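 CDK2/cyclinE1 (0.5 nM) phosphorylated 5-FAM-CDK7tide (2 μM) in MES buffer pH 6.5 with MgCl2, Tween 20 and BSA. Substrate and product were separated electrophoretically on a Caliper EZ Reader II. IC50 values came from nonlinear dose-response fits.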

ovarian cancer A2780 = assay: Cell biological activity detection (CyQuant, 72 hours), A2780; assay type: cell-based, human; conditions: A2780 cells, incubation for 72 hours
How it was run: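 IC50 derived from CyQuant Direct nuclear staining (488 nm excitation) after 72 h compound exposure at 37 °C, 5% CO2. Compounds tested in 9 concentrations from 10 μM, 1:4 steps, 0.2% DMSO, on A2780 or HCC70 cells plated overnight at 2000/well in RPMI 1640 + 10% FBS.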

[1] = biological target: T1, CDK12 (aa686-1082)/cyclinK complex (Homo sapiens, UniProt Q9NYV4); assay: In-vitro enzymatic inhibitory activity testing, CDK12 inhibition assay (Caliper EZ Reader II); assay type: biochemical; conditions: CDK12/cyclinK 50 nM, 180 min at 27° C.; read-out: CDK12 IC50
T1 construct: A CDK12 (aa686-1082)/cyclinK complex (50 nM)
T1 sequence (Q9NYV4 686-1082, species assumed): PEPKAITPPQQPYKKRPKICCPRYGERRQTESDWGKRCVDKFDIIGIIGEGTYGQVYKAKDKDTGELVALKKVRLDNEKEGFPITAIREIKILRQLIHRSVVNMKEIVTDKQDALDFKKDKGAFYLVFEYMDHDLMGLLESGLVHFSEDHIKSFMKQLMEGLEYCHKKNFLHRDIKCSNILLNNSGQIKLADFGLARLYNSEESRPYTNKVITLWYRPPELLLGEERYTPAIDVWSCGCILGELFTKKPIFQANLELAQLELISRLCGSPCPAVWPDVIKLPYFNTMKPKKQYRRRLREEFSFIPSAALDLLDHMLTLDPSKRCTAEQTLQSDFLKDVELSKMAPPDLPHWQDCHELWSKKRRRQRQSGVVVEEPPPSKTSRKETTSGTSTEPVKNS
T1 sequence (O75909 whole entry partner, species assumed, the tested form may be a part): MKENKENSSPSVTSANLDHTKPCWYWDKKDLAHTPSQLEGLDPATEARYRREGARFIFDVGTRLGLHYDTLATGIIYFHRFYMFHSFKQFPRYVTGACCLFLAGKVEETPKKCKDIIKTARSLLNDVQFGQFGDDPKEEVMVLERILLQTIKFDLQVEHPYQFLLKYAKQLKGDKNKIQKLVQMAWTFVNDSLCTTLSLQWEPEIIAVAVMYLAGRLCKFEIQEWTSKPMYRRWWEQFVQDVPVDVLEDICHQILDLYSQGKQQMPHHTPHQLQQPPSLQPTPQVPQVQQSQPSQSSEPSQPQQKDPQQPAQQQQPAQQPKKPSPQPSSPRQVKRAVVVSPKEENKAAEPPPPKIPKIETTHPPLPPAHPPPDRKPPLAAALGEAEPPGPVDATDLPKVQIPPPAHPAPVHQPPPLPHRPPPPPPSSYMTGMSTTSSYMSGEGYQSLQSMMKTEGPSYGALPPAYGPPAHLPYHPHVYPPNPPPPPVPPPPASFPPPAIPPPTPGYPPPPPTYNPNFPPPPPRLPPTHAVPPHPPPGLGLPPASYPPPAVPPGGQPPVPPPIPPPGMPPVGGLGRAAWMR
How it was run: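 CDK12 (aa686-1082)/cyclinK complex at 50 nM was pre-incubated with compound for 10 min, then reacted 180 min at 27° C with ATP and 2 μM 5-FAM-CDK9tide in pH 6.5 MES buffer with 10 mM MgCl2. Reactions were EDTA-quenched and product resolved electrophoretically; IC50 from nonlinear curve fit.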

Row | Structure (SMILES) | IC50 (CDK2/cyclinE1 complex) [µM] | IC50 (ovarian cancer A2780; Homo sapiens, A2780, 72 h) [µM] | IC50 [1] [µM] | IC50 (ovarian cancer A2780) [µM]
1 | CC1(C)COCC(Nc2ncc(C(F)(F)F)c(-c3c[nH]c4c(P(C)(C)=O)cccc34)n2)CN1 (single isomer, unassigned) [Compound 91, (3-(2-((3,3-dimethyl-1,4-oxazepan-6-yl)amino)-5-(trifluoromethyl)pyrimidin-4-yl)-1H-indole-7-yl)dimethylphosphine oxide] | 5 to 50 | < 0.02 | 5 to 50 | –
2 | CP(C)(=O)c1cccc2c(-c3nc(NC4(CO)CCOC4)ncc3C(F)(F)F)c[nH]c12 (single isomer, unassigned) [Compound 118] | 5 to 50 | < 0.02 | > 50 | –
3 | CP(C)(=O)c1cccc2c(-c3nc(NC4(CO)CCOC4)ncc3C(F)(F)F)c[nH]c12 (single isomer, unassigned) [Compound 119] | 5 to 50 | – | > 50 | 0.02 to 0.2
4 | CC(O)[C@H](C)Nc1ncc(C(F)(F)F)c(-c2c[nH]c3c(P(C)(C)=O)cccc23)n1 (single isomer, unassigned) [Compound 129] | 5 to 50 | 0.02 to 0.2 | > 50 | –
5 | CC(O)[C@H](C)Nc1ncc(C(F)(F)F)c(-c2c[nH]c3c(P(C)(C)=O)cccc23)n1 (single isomer, unassigned) [Compound 130] | 5 to 50 | – | > 50 | 0.02 to 0.2
6 | C[C@@H](CO)Nc1ncc(C(F)(F)F)c(-c2c[nH]c3c(P(C)(C)=O)c(C#N)ccc23)n1 [Compound 79, (S)-7-(dimethylphosphoryl)-3-(2-((1-hydroxy-propan-2-yl)amino)-5-(trifluoromethyl)pyrimidin-4-yl)-1H-indole-6-carbonitrile] | 0.2 to 5 | < 0.02 | > 50 | –
7 | C[C@@H](CO)Nc1ncc(C(F)(F)F)c(-c2c[nH]c3c(P(C)(C)=O)cccc23)n1 [Compound 82, (S)-(3-(2-((1-hydroxypropyl-2-yl)amino)-5-(trifluoromethyl)pyrimidin-4-yl)-1H-indole-7-yl)dimethylphosphine oxide] | 0.2 to 5 | < 0.02 | 5 to 50 | –
8 | CP(C)(=O)c1cccc2c(-c3nc(N[C@H]4CC[C@H](O)C4)ncc3C(F)(F)F)c[nH]c12 [Compound 83] | 0.2 to 5 | < 0.02 | 5 to 50 | –
9 | CC(C)(CO)Nc1ncc(C(F)(F)F)c(-c2c[nH]c3c(P(C)(C)=O)cccc23)n1 [Compound 85, (3-(2-((1-hydroxy-2-methylpropan-2-yl)amino)-5-(trifluoromethyl)pyrimidin-4-yl)-1H-indole-7-yl)dimethylphosphine oxide] | 5 to 50 | < 0.02 | > 50 | –
10 | CP(C)(=O)c1cccc2c(-c3nc(N[C@H]4COC[C@@H]4O)ncc3C(F)(F)F)c[nH]c12 [Compound 87] | 0.2 to 5 | < 0.02 | > 50 | –
11 | CP(C)(=O)c1cccc2c(-c3nc(NCCCO)ncc3C(F)(F)F)c[nH]c12 [Compound 89, (3-(2-((3-hydroxypropyl)amino)-5-(trifluoromethyl)pyrimidin-4-yl)-1H-indole-7-yl)dimethylphosphine oxide] | 0.2 to 5 | < 0.02 | > 50 | –
12 | CP(C)(=O)c1cccc2c(-c3nc(NC4(CO)CC(F)(F)C4)ncc3C(F)(F)F)c[nH]c12 [Compound 96, (3-(2-((3,3-difluoro-1-(hydroxymethyl)cyclobutyl)amino)-5-(trifluoromethyl)pyrimidin-4-yl)-1H-indole-7-yl)dimethylphosphine oxide] | 5 to 50 | < 0.02 | > 50 | –
13 | CP(C)(=O)c1cccc2c(-c3nc(NCC4CC(O)C4)ncc3C(F)(F)F)c[nH]c12 (stereo not drawn) [Compound 126, (3-(2-(((3-hydroxycyclobutyl)methyl)amino)-5-(trifluoromethyl)pyrimidin-4-yl)-1H-indole-7-yl)dimethylphosphine oxide] | 0.2 to 5 | 0.02 to 0.2 | > 50 | –
14 | CN(C)[C@H]1CC[C@H](Nc2ncc(C(F)(F)F)c(-c3c[nH]c4c(P(C)(C)=O)cccc34)n2)C1 [Compound 137, (3-(2-(((1S,3S)-3-(dimethylamino)cyclopentyl)amino)-5-(trifluoromethyl)pyrimidin-4-yl)-1H-indole-7-yl)dimethylphosphine oxide] | 0.2 to 5 | < 0.02 | 0.2 to 5 | –
15 | CP(C)(=O)c1cccc2c(-c3nc(N[C@@H]4CC[C@H]4O)ncc3C(F)(F)F)c[nH]c12 [Compound 153, (3-(2-(((1R,2R)-2-hydroxycyclobutyl)amino)-5-(trifluoromethyl)pyrimidin-4-yl)-1hydro-indole-7-yl)dimethylphosphine oxide] | 0.2 to 5 | 0.02 to 0.2 | > 50 | –

Continued, values first:

Row | IC50 (CDK2/cyclinE1 complex) [µM] | IC50 (ovarian cancer A2780; Homo sapiens, A2780, 72 h) [µM] | IC50 [1] [µM] | IC50 (ovarian cancer A2780) [µM] | Structure (SMILES)
16 | 5 to 50 | 0.02 to 0.2 | > 50 | – | CP(C)(=O)c1cccc2c(-c3nc(NCC4CC4CO)ncc3C(F)(F)F)c[nH]c12 (single isomer, unassigned) [Compound 143]
17 | 5 to 50 | – | > 50 | 0.02 to 0.2 | CP(C)(=O)c1cccc2c(-c3nc(NCC4CC4CO)ncc3C(F)(F)F)c[nH]c12 (single isomer, unassigned) [Compound 144]
18 | 0.2 to 5 | 0.02 to 0.2 | > 50 | – | CC(CO)CNc1ncc(C(F)(F)F)c(-c2c[nH]c3c(P(C)(C)=O)cccc23)n1 (single isomer, unassigned) [Compound 149]
19 | 0.2 to 5 | – | > 50 | 0.02 to 0.2 | CC(CO)CNc1ncc(C(F)(F)F)c(-c2c[nH]c3c(P(C)(C)=O)cccc23)n1 (single isomer, unassigned) [Compound 150]
20 | 0.2 to 5 | < 0.02 | > 50 | – | CP(C)(=O)c1cccc2c(-c3nc(NC[C@H](F)CO)ncc3C(F)(F)F)c[nH]c12 [Compound 86, (S)-(3-(2-((2-fluoro-3-hydroxypropyl)amino)-5-(trifluoromethyl)pyrimidin-4-yl)-1H-indole-7-yl)dimethylphosphine oxide]
21 | 0.2 to 5 | < 0.02 | > 50 | – | CC[C@@H](CO)Nc1ncc(C(F)(F)F)c(-c2c[nH]c3c(P(C)(C)=O)cccc23)n1 [Compound 88, (S)-(3-(2-((1-hydroxybutan-2-yl)amino)-5-(trifluoromethyl)pyrimidin-4-yl)-1H-indole-7-yl)dimethylphosphine oxide]
22 | 0.2 to 5 | < 0.02 | 5 to 50 | – | C[C@H](CO)Nc1ncc(C(F)(F)F)c(-c2c[nH]c3c(P(C)(C)=O)cccc23)n1 [Compound 93, (R)-(3-(2-((1-hydroxypropyl-2-yl)amino)-5-(trifluoromethyl)pyrimidin-4-yl)-1H-indole-7-yl)dimethylphosphine oxide]
23 | 5 to 50 | < 0.02 | > 50 | – | CP(C)(=O)c1cccc2c(-c3nc(NC4(CO)CC4)ncc3C(F)(F)F)c[nH]c12 [Compound 94, (3-(2-((1-(hydroxymethyl)cyclopropyl)amino)-5-(trifluoromethyl)pyrimidin-4-yl)-1H-indole-7-yl)dimethylphosphine oxide]
24 | 0.2 to 5 | < 0.02 | > 50 | – | CP(C)(=O)c1cccc2c(-c3nc(NCCO)ncc3C(F)(F)F)c[nH]c12 [Compound 97, (3-(2-((2-hydroxyethyl)amino)-5-(trifluoromethyl)pyrimidin-4-yl)-1H-indole-7-yl)dimethylphosphine oxide]
25 | 5 to 50 | < 0.02 | > 50 | – | CP(C)(=O)c1cccc2c(-c3nc(NCC(F)(F)CO)ncc3C(F)(F)F)c[nH]c12 [Compound 102, (3-(2-((2,2-difluoro-3-hydroxypropyl)amino)-5-(trifluoromethyl)pyrimidin-4-yl)-1H-indole-7-yl)dimethylphosphine oxide]
26 | 0.2 to 5 | 0.02 to 0.2 | > 50 | – | C[C@@H](CO)Nc1ncc(Cl)c(-c2c[nH]c3c(P(C)(C)=O)cccc23)n1 [Compound 103, (S)-(3-(5-chloro-2-((1-hydroxypropan-2-yl)amino)pyrimidin-4-yl)-1H-indole-7-yl)dimethylphosphine oxide]
27 | 5 to 50 | 0.02 to 0.2 | > 50 | – | CP(C)(=O)c1cccc2c(-c3nc(NC4(CO)CC(F)C4)ncc3C(F)(F)F)c[nH]c12 (stereo not drawn) [Compound 105, (3-(2-((3-fluoro-1-(hydroxymethyl)cyclobutyl)amino)-5-(trifluoromethyl)pyrimidin-4-yl)-1H-indole-7-yl)dimethylphosphine oxide]
28 | 0.2 to 5 | < 0.02 | > 50 | – | CP(C)(=O)c1cccc2c(-c3nc(NC4(CO)COC4)ncc3C(F)(F)F)c[nH]c12 [Compound 114, (3-(2-((3-(hydroxymethyl)oxetan-3-yl)amino)-5-(trifluoromethyl)pyrimidin-4-yl)-1H-indole-7-yl)dimethylphosphine oxide]
29 | 0.2 to 5 | < 0.02 | > 50 | – | CP(C)(=O)c1cccc2c(-c3nc(NC[C@H]4C[C@](C)(O)C4)ncc3C(F)(F)F)c[nH]c12 [Compound 127, (3-(2-(((trans-3-hydroxy-3-methylcyclobutyl)methyl)amino)-5-(trifluoromethyl)pyrimidin-4-yl)-1H-indole-7-yl)dimethylphosphine oxide]
